These results are taken from publication PMC5481443, “High-throughput Screening of Small Molecule Inhibitors of the Streptococcus Quorum-sensing Signal Pathway” (Scientific Reports, 2017).

Usually IC50 stands for the concentration at which inhibition is half-maximal. The low end stands for greater potency in that assay, the high end for weaker potency in that assay. The EC50 is the concentration at which the effect is half-maximal. In general, Ki refers to a dissociation constant, usually derived from enzyme kinetics or from competition with a known ligand. A lower Ki goes with higher affinity. The Km is the concentration of substrate that gives half-maximal velocity. In general, kcat refers to the maximal rate divided by the concentration of active sites.

One series concerns the target T1, S. pneumoniae PEP (Streptococcus pneumoniae serotype 4, UniProt Q03727).
T1 construct: His-tag; made in house; host or cells: E. coli BL21 (DE3) pLysS
The series is described as follows: S. pneumoniae PEP peptidase assay with tCComC-AFC. The format is biochemical. The protocol:
The PEP activity was assayed in a 110-μL reaction mixture containing 50 mM Tris-HCl, 150 mM ammonium sulfate, 0.02% Triton X-100, and various concentrations of the substrate. The reaction was started by adding the PEP solution to a final concentration of 0.25–2.0 μM. The reaction was performed at 25 °C, 50 μL of the reaction mixture was transferred to a white 96-well microtiter plate (Thermo Scientific 236105), and the fluorescence intensity was immediately measured by using a Promega GloMax®-Multi plus Detection System (Promega, Madison, WI) with excitation at 405 nm and emission at 495–505 nm. […]
(§1) Tris-HCl, 150 mM ammonium sulfate, and Triton X-100, pH 7.0, at 25 °C. The concentrations of Triton X-100 were 0.01% for MuPEP1 and 0.02% for S. pneumoniae PEP. The concentrations of PEP or the peptidase domain of BlpA were […]
(§2) domain of S. pneumoniae BlpA with Compound 1. […]
(§3) was digested with 0.5 μM PEP or the peptidase domain of BlpA in the presence of […]

Series [1] concerns S. mutans biofilm formation. The series is described as follows: Biofilm formation assay (crystal violet staining; tilted tube culture). The format is cell-based, S. mutans strain UA159. Here is the method: After 18 h of standing incubation at 37 °C in 5% CO2 under anaerobic condition in an AnaeroPack system (Mitsubishi Gas Chemical, Tokyo, Japan), the cultured medium was removed, and adherent bacteria were stained with 200 μL of 0.005% crystal violet for 30 min. […] The dye was extracted into 200 μL of 60% ethanol, and the biofilm mass was estimated by using a microplate reader (Bio-Rad, Model 680XR) (Bio-Rad, Hercules, CA) to measure the absorbance at 595 nm. […]

The target of a further series is MuPEP1 (S. mutans PEP) (Streptococcus mutans, UniProt Q8DW05). In words: MuPEP1 peptidase inhibition assay with fluorogenic substrate tCComC-AFC. The format is biochemical. Here is the method: This region of ComC is necessary and sufficient for the interaction with PEP[17]. […] Thus, this synthetic peptide was used as a functionally relevant substrate. Assays were performed in black flat-bottom 384-well plates (Greinar, 784900) under ambient conditions. All compounds dissolved in DMSO were predispensed on the plate (100 nL/well) with the final concentration of 20 μM, and then aliquots of 5 μL of 0.5 μM MuPEP1 (final concentration) in 50 mM Tris-HCl, 150 mM ammonium sulfate, and 0.02% Triton X-100 were dispensed to each well by using a Multidrop Combi dispenser (Thermo Fisher Scientific, Vantaa, Finland). […] These reaction mixtures contained DMSO at a 3% final concentration. Each 384-well plate contained 16 negative control wells (lacking MuPEP1) and 16 positive control wells (100 nL of DMSO replacing 100 nL of compound in DMSO). After 3-h incubation, the fluorescence intensity of the released AFC was measured by using a microplate reader, PHERAstar (BMG Labtech, Offenburg, Germany), with excitation at 380 nm and emission at 490 nm.
Fifteen microliters of 3.3 mM of phosphoric acid was added to 8 μL of the reaction mixtures from the screening. […] The fluorescence was detected by using excitation at 360 nm and emission at 470 nm.
Dose-dependent inhibitory activities of compounds against MuPEP1 were examined in quadruplicate. […]

Series [2] deals with peptidase domain of S. pneumoniae BlpA (Streptococcus pneumoniae, UniProt G3ECC8). In words: BlpA peptidase domain assay with tCComC-AFC. The protocol:
(§4) The PEP activity was assayed in a 110-μL reaction mixture containing 50 mM Tris-HCl, 150 mM ammonium sulfate, 0.02% Triton X-100, and various concentrations of the substrate. The reaction was started by adding the PEP solution to a final concentration of 0.25–2.0 μM. The reaction was performed at 25 °C, 50 μL of the reaction mixture was transferred to a white 96-well microtiter plate (Thermo Scientific 236105), and the fluorescence intensity was immediately measured by using a Promega GloMax®-Multi plus Detection System (Promega, Madison, WI) with excitation at 405 nm and emission at 495–505 nm.
(§5) Supplementary Figure S1: v/[E] versus substrate concentration plots for the PEP […]
(§6) The data were fitted with a saturation curve with the
as §1
(1 picture or pasted object on this page, not shown here) […]
as §2, §3

In the next series the target is S. oralis PEP (Streptococcus oralis, UniProt A0A1X1IJV1). The series is described as follows: S. oralis PEP peptidase assay with tCComC-AFC. Here is the method:
as §4
Supplementary Figure S1: v/[E] versus substrate concentration plots for the PEP
as §6
Tris-HCl, 150 mM ammonium sulfate, and Triton X-100, pH 7.0, at 25 °C. The
concentrations of Triton X-100 were 0.01% for MuPEP1 and 0.02% for S.
pneumoniae PEP. […]

For the next series, the system named is S. mutans. In words: Bacterial growth / viable cell count. The format is cell-based, S. mutans strain UA159. The following applies: 25 μM compound, tube culture. Here is the method:
[…] After 18 h of standing incubation at 37 °C in 5% CO2 under anaerobic condition in an AnaeroPack system (Mitsubishi Gas Chemical, Tokyo, Japan), the cultured medium was removed, and adherent bacteria were stained with 200 μL of 0.005% crystal violet for 30 min. The wells were washed twice with 300 μL of distilled water and then air dried. The dye was extracted into 200 μL of 60% ethanol, and the biofilm mass was estimated by using a microplate reader (Bio-Rad, Model 680XR) (Bio-Rad, Hercules, CA) to measure the absorbance at 595 nm. The bacterial growth was determined by measuring the turbidity (absorbance at 595 nm) of parallel wells.
For the count of viable cells shown in Fig. 2B, part of the culture was serially diluted and spread onto the BHI plate, and the plates were incubated overnight at 37 °C in 5% CO2 under anaerobic condition.

Series [3] has as its system nlmA and nlmC gene expression of S. mutans. In words: Real-time quantitative RT-PCR of bacteriocin genes. The format is cell-based. As to conditions: 25 μM compound. The protocol:
Six microliters of the overnight culture of S. mutans in BHI medium was inoculated into 0.4 mL of CDM. After 17 h of incubation at 37 °C in 5% CO2 under anaerobic condition in an AnaeroPack system, cells were collected by centrifugation and treated with labiase (Cosmo Bio, Tokyo, Japan), and total RNA was extracted and purified by using a PureLink™ RNA Mini kit (Ambion, Austin, TX). Purified RNA was reverse transcribed to cDNA by using SuperScript® VILO™ cDNA Synthesis kit. Quantitative real-time PCR was performed by using a Power SYBR® Green PCR Master Mix (Applied Biosystems, Foster City, CA) on a StepOnePlus Real–Time PCR system (Applied Biosystems). The gene expression levels were calculated by using the ΔΔ threshold cycle (ΔΔC T) method. The 16S rRNA gene of S. mutans was used as the housekeeping reference. The oligonucleotides to amplify each gene were as follows: 5′-[…]-3′ and 5′-[…]-3′ for 16S rRNA, 5′-[…]-3′ and 5′-[…]-3′ for nlmA (SMU. 150), and 5′-[…]-3′ and 5′-[…]-3′ for nlmC (SMU. 1914C). All experiments using commercially available kits were performed according to the manufacturer’s instructions.

A further series addresses MuPEP1 (Streptococcus mutans, UniProt Q8DW05). The series is described as follows: Kinetic analysis of MuPEP1 peptidase activity. Here is the method:
as §4, §5, §6, §1
(1 picture or pasted object on this page, not shown here)

In series [4] the test system is S. mutans competence development. In words: Transformation assay (competence development). As to conditions: 10 μM compound. The format is cell-based. Here is the method:
Four microliters of the overnight culture of S. mutans in BHI medium was inoculated to 0.4 mL of CDM in the absence or presence of 10 µM Compound 1. After 7.5 h incubation at 37 °C in 5% CO2 under anaerobic condition in the AnaeroPack system, 1 μg of plasmid pSET2 was added to the culture. After additional 3-h growth, the cultures were chilled on ice, and serial dilutions of the cultures were plated onto BHI agar plates (for enumeration of total CFU) and onto BHI agar plates containing 1 mg/mL spectinomycin (for enumeration of transformants). Transformation efficiency was determined after 24–48 h incubation at 37 °C in 5% CO2 under anaerobic condition.

Series [5] deals with CC(C)C[C@H](NC(=O)[C@H](CCC(=O)O)NC(=O)[C@H](CCCCN)NC(=O)[C@H](CCC(=O)O)NC(=O)[C@H](CC(N)=O)NC(=O)[C@H](CC(C)C)NC(=O)[C@@H](NC(=O)[C@@H]1CCCN1C(=O)[C@H](Cc1ccccc1)NC(=O)[C@H](CCC(N)=O)NC(=O)[C@H](C)N)C(C)C)C(=O)N[C@@H](CCCCN)C(=O)N[C@@H](CCC(=O)O)C(=O)N[C@H](C(=O)N[C@@H](CC(C)C)C(=O)NCC(=O)NCC(=O)Nc1ccc2c(C(F)(F)F)cc(=O)oc2c1)C(C)C. In words: purified protein, by the assay type.

[6] abbreviates: other: MuPEP1, non-competitive inhibition model fit, Fig. 2E, pH 7.0, 25.0 °C.
[7] abbreviates: other: saturation curve, pH 7.0, 25 °C, Fig. S1.

Sequence of MuPEP1 (Q8DW05 entry or part of it): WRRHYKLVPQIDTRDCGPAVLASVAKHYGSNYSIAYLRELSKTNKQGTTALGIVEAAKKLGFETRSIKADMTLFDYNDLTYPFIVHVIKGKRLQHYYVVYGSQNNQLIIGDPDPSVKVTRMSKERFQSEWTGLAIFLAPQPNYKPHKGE
Sequence of peptidase domain of S. pneumoniae BlpA (G3ECC8 entry or part of it): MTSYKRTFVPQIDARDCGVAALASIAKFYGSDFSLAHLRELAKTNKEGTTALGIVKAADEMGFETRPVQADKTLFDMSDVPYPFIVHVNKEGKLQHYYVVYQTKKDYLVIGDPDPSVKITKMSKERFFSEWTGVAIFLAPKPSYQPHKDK
Sequence of MuPEP1 (S. mutans PEP) (Q8DW05 entry or part of it): as the sequence (Q8DW05 entry or part of it) above
T1 sequence (Q03727 11-138): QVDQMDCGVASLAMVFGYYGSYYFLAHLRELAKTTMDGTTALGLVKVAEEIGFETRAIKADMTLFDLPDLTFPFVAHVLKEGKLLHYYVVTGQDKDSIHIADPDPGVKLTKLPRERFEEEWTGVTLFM
Sequence of S. oralis PEP (A0A1X1IJV1 entry or part of it): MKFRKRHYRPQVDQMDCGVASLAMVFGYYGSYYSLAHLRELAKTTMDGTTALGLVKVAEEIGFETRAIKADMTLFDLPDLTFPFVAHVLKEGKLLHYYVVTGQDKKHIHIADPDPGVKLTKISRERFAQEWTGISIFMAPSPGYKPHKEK

As to `CCCNC(=O)OCC1CC2CCN1CC2C#Cc1ccccc1` (centres unmarked) [Compound 1], the IC50 turned out to be 29 µM at S. pneumoniae PEP, 38 µM against MuPEP1 (S. mutans PEP), 16 µM in [2] and 25 µM against S. oralis PEP. The “Biofilm in standing culture in tilted round-bottom culture tubes” value in series [1] (25 μM compound, overnight standing culture) is “easily detached and dispersed after gentle swirling”. Moreover, the EC50 in series [1] (Streptococcus mutans, S. mutans, crystal violet staining, 96-well plate, 18 h, read-out: EC50 of suppression of biofilm formation) was 5 µM. The “Antimicrobial activity against S. mutans” value in the series on S. mutans was “did not show antimicrobial activity”. The “Relative gene expression level of nlmA” value in series [3] came to 18%. The “Relative gene expression level of nlmC” value in series [3] turned out to be 23%. The compound also displayed an inhibition constant (Ki) at MuPEP1 of 38 µM. Further, the Inhibition mechanism entry on MuPEP1 (Vmax decreased, Km unaffected) was “non-competitively inhibited”. In series [4], the “Transformation efficiency relative to absence of compound” value stood at 35%.

Consider MuPEP1 (Streptococcus mutans UA159), for which, in [5] (setting [6]), the Km is 43 µM and the kcat worked out at 0.00333 s⁻¹. For the same compound, in series [5] (setting [7]), the Km is 46 µM and the kcat came out at 0.00317 s⁻¹.

“S. oralis PEP (Streptococcus oralis subsp. oralis)”: in series [5] (setting [7]), the Km is 8.2 µM and the kcat is 0.00123 s⁻¹.

For “peptidase domain of S. pneumoniae BlpA (Streptococcus pneumoniae)”, in [5] (setting [7]), the Km was 18 µM and the kcat came out at 0.011 s⁻¹.
